Assay results from ChEMBL document CHEMBL1177682, “Hypoxic selectivity and solubility--investigating the properties of A-ring substituted nitro seco-1,2,9,9a-tetrahydrocyclopropa[c]benz[e]indol-4-ones (nitroCBIs) as hypoxia-activated prodrugs for antitumor therapy” (Bioorg Med Chem, 2010).
Active and inactive are the calls of the source. No cut-off for these calls is given here.

How the values were obtained:
SK-OV-3 [1] = experiment: Cytotoxicity against human SKOV3 cells under aerobic condition after 5 days by SRB assay; type: functional, cell-based; settings: SK-OV-3, 120 h
SK-OV-3 [2] = experiment: Cytotoxicity against human SKOV3 cells under hypoxic condition after 5 days by SRB assay; type: functional, cell-based; settings: SK-OV-3, 120 h
SK-OV-3 [3] = experiment: Hypoxic cytotoxicity ratio IC50 for human SKOV3 cells under aerobic condition to IC50 for human HT-29 cells under hypoxic condition; type: functional
HT-29 [4] = experiment: Cytotoxicity against human HT-29 cells under aerobic condition after 5 days by SRB assay; type: functional, cell-based; settings: HT-29, 120 h
HT-29 [5] = experiment: Cytotoxicity against human HT-29 cells under hypoxic condition after 5 days by SRB assay; type: functional, cell-based; settings: HT-29, 120 h
HT-29 [6] = experiment: Hypoxic cytotoxicity ratio IC50 for human HT-29 cells under aerobic condition to IC50 for human HT-29 cells under hypoxic condition; type: functional
[7] = Toxicity against human HT-29 xenografted ip dosed CD1 mouse assessed as maximum tolerated dose; type: organism-based; settings: in vivo, read-out: Activity
HT-29 [8] = experiment: Antitumor activity against human HT-29 cells xenografted in CD1 mouse after 18 hrs; type: functional, cell-based
[9] = AUC (0 to 180 mins) in CD1 mouse at 23.7 umol/kg, iv; type: ADME, organism-based; set-up: time < 3 hr, dose 23.7 umol/kg, route intravenous; settings: plasma
[10] = Plasma concentration in CD1 mouse at 23.7 umol/kg, iv after 15 mins; type: ADME, organism-based

COc1cc2cc(C(=O)N3CC(CCl)c4c3cc([N+](=O)[O-])c3ccc(C(=O)NCCN(C)C)cc43)[nH]c2c(OC)c1OC (stereo not given)
IC50 (SK-OV-3 [1]): 2500 nM | IC50 (SK-OV-3 [2]): 180 nM | Ratio IC50 (SK-OV-3 [3]): 16 | IC50 (HT-29 [4]): 1300 nM | IC50 (HT-29 [5]): 540 nM | Ratio IC50 (HT-29 [6]): 2.4

CN(C)CCNS(=O)(=O)c1ccc2c3c(cc([N+](=O)[O-])c2c1)N(C(=O)c1cc2cc(OCCN(C)C)ccc2[nH]1)CC3CCl (stereo not given)
IC50 (SK-OV-3 [1]): 830 nM | IC50 (SK-OV-3 [2]): 6.6 nM | Ratio IC50 (SK-OV-3 [3]): 130 | IC50 (HT-29 [4]): 730 nM | IC50 (HT-29 [5]): 9 nM | Ratio IC50 (HT-29 [6]): 110 | MTD [7]: 23.7 µmol/kg | Activity (HT-29 [8]): inactive | AUC(0-t) at 3 h [9]: < 0.03 µM·h | concentration at […] [10]: < 10 nM

CNS(=O)(=O)c1ccc2c3c(cc(N)c2c1)N(C(=O)c1cc2cc(OCCN(C)C)ccc2[nH]1)CC3CCl (stereo not given)
IC50 (SK-OV-3 [1]): 20 nM | IC50 (SK-OV-3 [2]): 11 nM | IC50 (HT-29 [4]): 24 nM | IC50 (HT-29 [5]): 20 nM

CN(C)CCOc1ccc2[nH]c(C(=O)N3CC(CCl)c4c3cc([N+](=O)[O-])c3cc(S(=O)(=O)NN)ccc43)cc2c1 (stereo not given)
IC50 (SK-OV-3 [1]): 33000 nM | IC50 (SK-OV-3 [2]): 210 nM | Ratio IC50 (SK-OV-3 [3]): 160 | IC50 (HT-29 [4]): 31000 nM | IC50 (HT-29 [5]): 160 nM | Ratio IC50 (HT-29 [6]): 220

CNS(=O)(=O)c1ccc2c3c(cc([N+](=O)[O-])c2c1)N(C(=O)c1cc2cc(OCCN(C)C)ccc2[nH]1)CC3CCl (stereo not given)
IC50 (SK-OV-3 [1]): 2600 nM | IC50 (SK-OV-3 [2]): 120 nM | Ratio IC50 (SK-OV-3 [3]): 21 | IC50 (HT-29 [4]): 2700 nM | IC50 (HT-29 [5]): 130 nM | Ratio IC50 (HT-29 [6]): 24

CN(C)CCOc1ccc2[nH]c(C(=O)N3CC(CCl)c4c3cc([N+](=O)[O-])c3cc(S(=O)(=O)NO)ccc43)cc2c1 (stereo not given)
IC50 (SK-OV-3 [1]): 24000 nM | IC50 (SK-OV-3 [2]): 450 nM | Ratio IC50 (SK-OV-3 [3]): 55 | IC50 (HT-29 [4]): 24000 nM | IC50 (HT-29 [5]): 150 nM | Ratio IC50 (HT-29 [6]): 160

CN(C)CCOc1ccc2[nH]c(C(=O)N3CC(CCl)c4c3cc([N+](=O)[O-])c3cc(S(=O)(=O)N(C)C)ccc43)cc2c1 (stereo not given)
IC50 (SK-OV-3 [1]): 500 nM | IC50 (SK-OV-3 [2]): 210 nM | Ratio IC50 (SK-OV-3 [3]): 2.4 | IC50 (HT-29 [4]): 1100 nM | IC50 (HT-29 [5]): 370 nM | Ratio IC50 (HT-29 [6]): 3.6

CN(C)CCOc1ccc2[nH]c(C(=O)N3CC(CCl)c4c3cc([N+](=O)[O-])c3cc(S(N)(=O)=O)ccc43)cc2c1 (stereo not given)
IC50 (SK-OV-3 [1]): 6900 nM | IC50 (SK-OV-3 [2]): 28 nM | IC50 (HT-29 [4]): 4600 nM | IC50 (HT-29 [5]): 18 nM

CN(C)CCOc1ccc2[nH]c(C(=O)N3CC(CCl)c4c3cc([N+](=O)[O-])c3cc(N)ccc43)cc2c1 (stereo not given)
IC50 (SK-OV-3 [1]): 2500 nM | IC50 (SK-OV-3 [2]): 1300 nM | Ratio IC50 (SK-OV-3 [3]): 2 | IC50 (HT-29 [4]): 1800 nM | IC50 (HT-29 [5]): 760 nM | Ratio IC50 (HT-29 [6]): 2.4

COc1cc2cc(C(=O)N3CC(CCl)c4c3cc([N+](=O)[O-])c3cc(C(=O)NCCN(C)C)ccc43)[nH]c2c(OC)c1OC (stereo not given)
IC50 (SK-OV-3 [1]): 2000 nM | IC50 (SK-OV-3 [2]): 140 nM | Ratio IC50 (SK-OV-3 [3]): 24 | IC50 (HT-29 [4]): 1500 nM | IC50 (HT-29 [5]): 300 nM | Ratio IC50 (HT-29 [6]): 5.9
